Results on 18 molecules are retold here after patent US5302599A, “Therapeutically useful heterocyclic indole compounds” (The Upjohn Company, priority 1992, dated 1994).

Assay [1] deals with T1, 5-hydroxytryptamine (HT1A) receptor (Bos taurus, UniProt F6Q2H9).
T1 construct: from tissue; host or cells: bovine brain homogenate
T1 sequence (F6Q2H9 1-422): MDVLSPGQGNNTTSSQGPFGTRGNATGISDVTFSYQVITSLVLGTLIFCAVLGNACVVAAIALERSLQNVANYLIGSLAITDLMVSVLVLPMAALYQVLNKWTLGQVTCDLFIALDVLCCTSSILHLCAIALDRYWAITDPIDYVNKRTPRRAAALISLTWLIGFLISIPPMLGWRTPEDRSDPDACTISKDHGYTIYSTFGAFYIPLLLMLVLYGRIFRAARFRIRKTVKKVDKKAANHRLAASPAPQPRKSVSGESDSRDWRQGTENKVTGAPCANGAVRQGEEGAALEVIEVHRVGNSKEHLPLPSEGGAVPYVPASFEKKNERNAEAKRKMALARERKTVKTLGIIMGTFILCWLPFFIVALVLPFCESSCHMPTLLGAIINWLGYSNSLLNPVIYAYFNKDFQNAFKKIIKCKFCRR
The assay is described as follows: Inhibition of 3H-8-OH-DPAT binding in a bovine brain homogenate (5HT1A binding).
Excerpt: Binding: Inhibition of 3H-8-OH-DPAT binding in a bovine brain homogenate. Potency is given as nanomole (nM) dose required to inhibit 50% of DPAT binding (IC50). This test measures ability to bind to 5-hydroxytryptamine (HT1A ) receptor.

Assay [2] can be described thus: Hypothermia in mice after subcutaneous injection. Format: in vivo. To be noted: 20 min, dose required to depress temperature (2° C.) in two of four mice, Spearman-Karber; for ED50: Mus musculus, sc.
Description: Hypothermia: Starting with a dose of 30 mg/kg, four mice are injected subcutaneously with test compound. Twenty minutes later, the number of animals whose body temperature has decreased by 2° C. or more are counted. […] The time for last statistically significant drug affect on mean body temperature is indicated in minutes. […] Potency is given as mg/kg ED50 (dose required to depress temperature in two of four mice) as measured by Spearman-Karber statistics.
Assay [3] deals with dopamine D2 receptors (Rattus norvegicus, UniProt P61169). The assay is described as follows: biochemical. It is filed as binding. An excerpt:
For Dopamine (D2): Inhibition of 3H-raclopride binding in rat striata homogenate. […] This test measures the ability to bind to dopamine D2 receptors.

The mark [4] stands for this setting: 5HT1A Binding IC50, 3H-8-OH-DPAT.
Where [5] appears, read: read-out: Hypothermia ED50, mice, subcutaneous.
Setting [6] is: 3H-raclopride, rat striata homogenate, read-out: Dopamine D2-Receptor Binding IC50.
[7] abbreviates: 3H-8-OH-DPAT, read-out: 5HT1A Binding IC50.
[8] abbreviates: mice, subcutaneous, read-out: Hypothermia ED50.

Counter-ions that a name gives are not always drawn. Like-named read-outs stand apart in the source and are kept apart here.

Chain of dopamine D2 receptors (P61169 whole entry): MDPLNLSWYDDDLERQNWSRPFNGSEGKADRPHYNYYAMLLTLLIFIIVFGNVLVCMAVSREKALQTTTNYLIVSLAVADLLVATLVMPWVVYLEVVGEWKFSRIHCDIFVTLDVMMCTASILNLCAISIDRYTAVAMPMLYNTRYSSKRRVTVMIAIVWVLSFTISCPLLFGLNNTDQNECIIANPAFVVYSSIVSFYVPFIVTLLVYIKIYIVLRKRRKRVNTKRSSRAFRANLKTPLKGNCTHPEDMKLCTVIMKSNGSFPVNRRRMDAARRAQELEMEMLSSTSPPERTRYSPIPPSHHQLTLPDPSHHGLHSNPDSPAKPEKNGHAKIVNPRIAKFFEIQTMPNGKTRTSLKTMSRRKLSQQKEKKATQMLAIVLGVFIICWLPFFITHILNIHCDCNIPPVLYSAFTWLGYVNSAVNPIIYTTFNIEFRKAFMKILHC

For `COC(=O)c1cc2c3c(ccc2[nH]1)OCC(CN1CCC2(CC1)C(=O)NCN2c1ccccc1)O3` (stereo not shown) [XIa, 2,3-dihydro-2-((4-oxo-1-phenyl-1,3,8-triazaspiro(4.5)-dec-8-yl)methyl)-7H-1,4-dioxino(2,3-e)indol-8-methyl ester], the IC50 in assay [1] (setting [4]) came to 0.47 nM. The ED50 in assay [2] (setting [5]) came to 30 mg/kg.

Molecule `O=C(O)c1cc2c3c(ccc2[nH]1)OCC(CN1CCC2(CC1)C(=O)NCN2c1ccccc1)O3` (stereo not shown) [XIb] showed an IC50 in assay [1] (setting [4]) of 36.3 nM. Moreover, the ED50 in assay [2] (setting [5]) worked out at 17.3 mg/kg.

`NC(=O)c1cc2c3c(ccc2[nH]1)OCC(CN1CCC2(CC1)C(=O)NCN2c1ccccc1)O3` (stereo not shown) [XIc, 7H-1,4-Dioxino(2,3-e)indole-8-carboxamide, 2,3-dihydro-2-((4-oxo-1-phenyl-1,3,8-triazaspiro(4.5)dec-8-yl)methyl)-]: the half-maximal inhibitory concentration (IC50) in assay [1] (setting [4]) is 0.29 nM.

Turning to `N#Cc1cc2c3c(ccc2[nH]1)OCC(CN1CCC2(CC1)C(=O)NCN2c1ccccc1)O3` (stereo not shown) [XId, 7H-1,4-Dioxino(2,3-e)indole-8-carbonitrile, 2,3-dihydro-2-((4-oxo-1-phenyl-1,3,8-triazaspiro(4.5)dec-8-yl)methyl)-], the IC50 in assay [1] (setting [4]) turned out to be 0.17 nM; in assay [3], 1.53 nM. In addition, the ED50 in assay [2] (setting [5]) was found to be 0.01 mg/kg.

As for `CCCCOC(=O)c1cc2c3c(ccc2[nH]1)OCC(CN1CCC2(CC1)C(=O)NCN2c1ccccc1)O3` (stereo not shown) [XIe, 7H-1,4-Dioxino(2,3-e)indole-8-carboxylic acid, 2,3-dihydro-2-((4-oxo-1-phenyl-1,3,8-triazaspiro(4.5)dec-8-yl)methyl)-, butyl ester], the half-inhibitory concentration (IC50) in assay [1] (setting [4]) came out at 13.5 nM.

On to `O=C(OCc1ccccc1)c1cc2c3c(ccc2[nH]1)OCC(CN1CCC2(CC1)C(=O)NCN2c1ccccc1)O3` (stereo not shown) [XIf, 7H-1,4-Dioxino(2,3-e)indole-8-carboxylic acid, 2,3-dihydro-2-((4-oxo-1-phenyl-1,3,8-triazaspiro(4.5)dec-8-yl)methyl)-, phenylmethyl ester], for which the IC50 in assay [1] (setting [4]) amounted to 8.4 nM; in assay [3] (setting [6]), 190 nM. For the same molecule, the ED50 in assay [2] (setting [5]) worked out at 17.3 mg/kg.

The molecule `COC(=O)c1cc2c3c(ccc2[nH]1)OCC(CN1CCC(n2c(=O)[nH]c4ccccc42)CC1)O3` (stereo not shown) [XIg, 7H-1,4-Dioxino(2,3-e)indole-8-carboxylic acid, 2-((4-(2,3-dihydro-2-oxo-1H-benzimidazol-1-yl)-1-piperidinyl)methyl)-2,3-dihydro-, methyl ester, monohydrochloride] came in with an IC50 in assay [1] (setting [4]) of 3.7 nM.

On to `CCOC(=O)C1CCN(CC2COc3ccc4[nH]c(C(=O)OC)cc4c3O2)CC1` (stereo not shown) [XIh, 7H-1,4-Dioxino(2,3-e)indole-8-carboxylic acid, 2-((4-(ethoxycarbonyl-1-piperidinyl)methyl)-2,3-dihydro-, methyl ester, monohydrochloride], for which the results for the IC50 in assay [1] (setting [7]) and in assay [3] (setting [6]) were 9.6 nM and 147 nM, respectively. Besides, in assay [2] (setting [8]), the ED50 is over 30 mg/kg.

`COC(=O)c1cc2c3c(ccc2[nH]1)OCC(CN1CCC(Nc2ccccc2)(C(N)=O)CC1)O3` (stereo not shown) [XIi, 7H-1,4-Dioxino(2,3-e)indole-8-carboxylic acid, 2-((4(aminocarbonyl)-4-(phenylamino)-1-piperidinyl)methyl)-2,3-dihydro-, methyl ester] yielded an IC50 in assay [1] (setting [4]) of 79.3 nM.

On to `COC(=O)c1cc2c3c(ccc2[nH]1)OCC(CNCCCc1ccccc1)O3` (stereo not shown) [XIj, 7H-1,4-Dioxino(2,3-e)indole-8-carboxylic acid, 2,3-dihydro-2-((3-phenylpropyl)amino)methyl)-, methyl ester, monohydrochloride], for which the values for the IC50 in assay [1] (setting [7]) and in assay [3] (setting [6]) were 4 nM and 54.6 nM, respectively. Besides, the ED50 in assay [2] (setting [8]) was 1.3 mg/kg.

As for `Cl.O=C(NCCCc1ccccc1)c1cc2c3c(ccc2[nH]1)OCC(CNCCCc1ccccc1)O3` (stereo not shown) [XIk, 7H-1,4-Dioxino(2,3-e)indole-8-carboxamide, 2,3-dihydro-N-(3-phenylpropyl)-2-(((3-phenylpropyl)amino)methyl)-, monohydrochloride], the values for the IC50 in assay [1] (setting [7]) and in assay [3] (setting [6]) were 26 nM and 350 nM, respectively. For the same molecule, the ED50 in assay [2] (setting [8]) was over 30 mg/kg.

The molecule `O=C1NCN(c2ccccc2)C12CCN(CC1COc3ccc4[nH]c(CO)cc4c3O1)CC2` (stereo not shown) [XIl, 1,3,8-Triazaspiro(4.5)decan-4-one, 8-((2,3-dihydro-8-(hydroxymethyl)-7H-1,4-dioxino(2,3-e)indol-2-yl)methyl)-1-phenyl-] registered an IC50 in assay [1] (setting [4]) of 2.3 nM.

Take `O=C1NCN(c2ccccc2)C12CCN(CC1COc3ccc4[nH]ccc4c3O1)CC2` (stereo not shown) [XIm, 1,3,8-Triazaspiro(4.5)decan-4-one, 8-((2,3-dihydro-7H-1,4-dioxino(2,3-e)indol-2-yl)methyl)-1-phenyl]: the IC50 in assay [1] (setting [4]) came to 1 nM; in assay [3] it was 0.13 nM.

Consider `C=CCn1c(C(=O)OC)cc2c3c(ccc21)OCC(CN1CCC2(CC1)C(=O)NCN2c1ccccc1)O3` (stereo not shown) [XIn, 7H-1,4-Dioxino(2,3-e)indole-8-carboxylic acid, 2,3-dihydro-2-((4-oxo-1-phenyl-1,3,8-triazaspiro(4.5)dec-8-yl)methyl)-7-(2-propenyl)-, methyl ester], for which the IC50 in assay [1] (setting [4]) was 268 nM.

For `C=CCN1CN(c2ccccc2)C2(CCN(CC3COc4ccc5c(cc(C(=O)OC)n5CC=C)c4O3)CC2)C1=O` (stereo not shown) [XIo, 7H-1,4-Dioxino(2,3-e)indole-8-carboxylic acid, 2,3-dihydro-2-((4-oxo-1-phenyl-3-(2-propenyl)-1,3,8-triazaspiro(4.5)dec-8-yl)methyl)-7-(2-propenyl)-, methyl ester], the IC50 in assay [1] (setting [4]) stood at 280 nM; in assay [3] it was 97.3 nM.

For the molecule `C=CCN1CN(c2ccccc2)C2(CCN(CC3COc4ccc5[nH]c(C(=O)OC)cc5c4O3)CC2)C1=O` (stereo not shown) [XIp, 7H-1,4-Dioxino(2,3-e)indole-8-carboxylic acid, 2,3-dihydro-2-((4-oxo-1-phenyl-3-(2-propenyl)-1,3,8-triazaspiro(4.5)dec-8-yl)methyl)-, methyl ester], the IC50 in assay [1] (setting [4]) was 11 nM.

As to `COC(=O)C1Cc2c(ccc3c2OC(CN2CCC4(CC2)C(=O)NCN4c2ccccc2)CO3)N1` (stereo not shown) [a', 7H-1,4-Dioxino(2,3-e)indole-8-carboxylic acid 2,3,8,9-tetrahydro-2-((4-oxo-1-phenyl-1,3,8-triazaspiro(4.5)dec-8-yl)methyl)-, methyl ester], the ED50 in assay [2] (setting [5]) worked out at 17.3 mg/kg.

As to `O=C(O)c1cc2c3c(ccc2[nH]1)OCC(CN1CCC2(CC1)C(=O)NCN2c1ccccc1)O3` (stereo not shown) [b'], the IC50 was found to be 24.7 nM in assay [1] (setting [4]) and 52.2 nM in assay [3]. Also, the “Hypothermia ED50” value in assay [2] (mice, subcutaneous) is given as 30.0 mg/kg.

For orientation: IC50 means the concentration needed to halve the response being measured. The term ED50 denotes the dose that gives a 50% effect, or the effect in half of the subjects.
